The text below walks through data of US10508113B2, “Inhibitors of tyrosine kinase 2 mediated signaling” (AbbVie Inc., priority 2018, dated 2019).

The target of one experiment is T1, Jak1 (Homo sapiens, UniProt P23458).
T1 construct: endogenous in cells; host or cells: TF1 cells
The experiment can be described thus: Jak1 (PSTAT3 TF1) alpha screen assay: inhibition of IL-6 induced phosphorylation of STAT3 in TF1 cells. In kind it is cell-based. The following applies: calculated from tabulated EC50 data (Jak1 / Tyk2). The essentials: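 IL-6-starved TF1 cells were preincubated 30 min at 37 °C with compound (top final 25 μM, 8-point 1:5 series), then stimulated with IL-6 (100 ng/mL final) for 30 min at 37 °C. Lysates were read for pSTAT3 (Tyr705) by AlphaScreen SureFire. EC50 from percent-activity dose-response curves.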

Another experiment concerns the target T2, Jak2 (Homo sapiens, UniProt O60674).
T2 construct: Cell Type: UT7 cells engineered to express the erythropoietin (EPO) receptor; endogenous in cells; host or cells: UT7 cells engineered to express the EPO receptor
Nature of the experiment: Jak2 (PSTATS UT7) alpha screen assay: inhibition of EPO induced phosphorylation of STAT5 in UT7 cells. In kind it is cell-based. Conditions: calculated from tabulated EC50 data (Jak2 / Tyk2). The method, then:
3. JAK2 (PSTATS UT7) ALPHA SCREEN ASSAY
Erythropoietin (EPO) is known to transduce its signal through EPO receptor via Jak2. Activity against Jak2 was therefore measured by determining inhibition of EPO induced phosphorylation of STATS in UT7 cells. […] Materials
Cell Type: UT7 cells engineered to express the erythropoietin (EPO) receptor; Culture Medium: Dulbecco's Modified Eagle Medium (DMEM) with 2 mM L-glutamine, 10 mM hydroxyethyl piperazineethanesulfonic acid (HEPES), 10% heat-inactivated fetal bovine serum (FBS) and Stock EPO (5000U in 250 uL, need 5U/mL, so add 250 μL to 1L of media); Assay Medium: 5% FBS ultra-low IgG and 1% Pen/Strep. Compounds were made-up in 100% dimethyl sulfoxide (DMSO).
Day One - Starve Cells: 4 Flasks for one 384 plate (spin down @1000 rpm for 10 minutes and add DMEM with no EPO).
Day Two—Compound Dilutions:
i. Manual 8-point 1:3 dilution curve: 5 mM top concentration dispensed in row A of a
Corning 96-well polypropylene plate, columns 2-12. DMSO dispensed in position A01 for low and high controls. Compounds were serially diluted 1:3 by adding 10 μL stock to 20 μL DMSO down the plate.
ii. Media dilution of compounds: Serially diluted compounds were diluted 1:50 in assay medium by adding 4 μL compound to 196 μL assay medium in a Corning 96-well polypropylene plate.
384 Alpha Screen Plate Set up: Transferred 2.5 μL/well of compound solution from last dilution plate. Replicates were vertical, so that one column of the 96-well dilution plate goes into one column on the 384-well plate twice. Plated 1×10^5 starved cells/well in 5μL. Washed cells in 10 mL Hank's balanced salt solution (HBSS) after spinning down. Counted live cells. Multiplied by dilution factor and 10,000 (constant) to get the concentration of viable cells. Multiplied by volume of cells to get the total number of live cells. Divided by 20,000,000 cells/mL to get the volume needed. Subtracted the original volume to get the volume to be added to get the final concentration of cells. Mixed in reservoir if needed, ensuring that all cell clumps are broken up (if not broken up, they were removed from the suspension). Cells were plated at 5 μL/well in gray Alpha Screen 384-well plate. Spinned the plate to bring the contents to the bottom of the wells at 400 rpm for 2 minutes. Top final compound concentration: 25 μM. Sealed with adhesive and tapped gently. Incubated cells at 37° C. for 30 minutes.
c. EPO Stimulation (p STATS)
Once cells were in incubator, immediately prepared working stock of EPO (1 nM final assay concentration). EPO stock=2860 nM of sterile filtered liquid in sodium citrate buffer (1 liter of ddH2O containing 5.9 g of sodium citrate, 5.8 g of sodium chloride and 0.06 g of citric acid). Diluted 1:22.72 by adding 4.44 stock EPO to 95.6 pi assay media, then dilute again […] depending on how much volume is needed for the assay plates. Used assay medium to bring to volume. Added 2.5 μL EPO to each well. Spinned plate at 400 rpm briefly; tap the plate gently before covering with an adhesive seal. Cells were incubated at 37° C. for 20 minutes.
Added 2.5 μL of 5X Lysis buffer to each well. Spinned plate at 400 rpm briefly. Incubated at room temperature (on orbital shaker) for 10 minutes.
e. Protein (A) Acceptor Beads Preparation: (Light sensitive)
Phosphorylated Signal Transducer and Activator of Transcription 5 (pSTAT5) was quantified using the PerkinElmer SureFire pSTATS (Tyrosine 694/699) Assay. Calculated total volume needed (wells×15 μL×30%). Divided total volume by 5 to get volume of activation buffer. Subtracted volume of activation buffer from total volume and divide by 40 to get volume of acceptor beads (add last). Total volume - acceptor bead volume - activation buffer to get volume of reaction buffer. Added 15 μL to each well and covered with foil. Shaked on orbital shaker for 2 hours at 500 rpm.
f. Streptavidin Donor Beads Preparation:
Calculated total volume needed (wells×6μL×30%). […]

T2 sequence (O60674 whole entry): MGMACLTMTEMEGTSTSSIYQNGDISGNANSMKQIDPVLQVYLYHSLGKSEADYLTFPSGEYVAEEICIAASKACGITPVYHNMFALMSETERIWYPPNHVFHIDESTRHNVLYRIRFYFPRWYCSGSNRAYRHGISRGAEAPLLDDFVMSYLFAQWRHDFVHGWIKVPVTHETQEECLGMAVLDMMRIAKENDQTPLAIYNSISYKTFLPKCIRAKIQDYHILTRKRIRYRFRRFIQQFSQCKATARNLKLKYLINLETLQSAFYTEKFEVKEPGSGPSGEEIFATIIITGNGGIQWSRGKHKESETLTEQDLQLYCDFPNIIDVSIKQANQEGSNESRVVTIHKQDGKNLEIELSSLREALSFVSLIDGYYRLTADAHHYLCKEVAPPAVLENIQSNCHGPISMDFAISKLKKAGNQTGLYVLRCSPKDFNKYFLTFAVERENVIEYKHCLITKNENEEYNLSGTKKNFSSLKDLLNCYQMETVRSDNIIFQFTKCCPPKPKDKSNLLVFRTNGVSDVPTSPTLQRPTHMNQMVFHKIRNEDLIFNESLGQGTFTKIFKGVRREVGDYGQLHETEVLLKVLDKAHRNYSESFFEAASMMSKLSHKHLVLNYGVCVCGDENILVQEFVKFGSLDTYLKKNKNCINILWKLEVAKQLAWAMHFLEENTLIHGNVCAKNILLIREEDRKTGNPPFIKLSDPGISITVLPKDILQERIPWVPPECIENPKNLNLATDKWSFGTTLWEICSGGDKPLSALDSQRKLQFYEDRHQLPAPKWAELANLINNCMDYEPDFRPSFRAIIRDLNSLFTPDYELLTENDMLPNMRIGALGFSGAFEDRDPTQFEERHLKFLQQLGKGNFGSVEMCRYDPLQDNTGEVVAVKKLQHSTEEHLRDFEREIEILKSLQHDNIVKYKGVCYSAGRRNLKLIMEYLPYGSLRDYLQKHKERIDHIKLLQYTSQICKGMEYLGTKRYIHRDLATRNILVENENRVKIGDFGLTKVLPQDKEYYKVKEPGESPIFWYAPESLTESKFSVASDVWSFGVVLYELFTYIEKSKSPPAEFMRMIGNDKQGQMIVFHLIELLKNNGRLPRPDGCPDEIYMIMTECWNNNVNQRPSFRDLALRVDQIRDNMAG
T1 sequence (P23458 whole entry): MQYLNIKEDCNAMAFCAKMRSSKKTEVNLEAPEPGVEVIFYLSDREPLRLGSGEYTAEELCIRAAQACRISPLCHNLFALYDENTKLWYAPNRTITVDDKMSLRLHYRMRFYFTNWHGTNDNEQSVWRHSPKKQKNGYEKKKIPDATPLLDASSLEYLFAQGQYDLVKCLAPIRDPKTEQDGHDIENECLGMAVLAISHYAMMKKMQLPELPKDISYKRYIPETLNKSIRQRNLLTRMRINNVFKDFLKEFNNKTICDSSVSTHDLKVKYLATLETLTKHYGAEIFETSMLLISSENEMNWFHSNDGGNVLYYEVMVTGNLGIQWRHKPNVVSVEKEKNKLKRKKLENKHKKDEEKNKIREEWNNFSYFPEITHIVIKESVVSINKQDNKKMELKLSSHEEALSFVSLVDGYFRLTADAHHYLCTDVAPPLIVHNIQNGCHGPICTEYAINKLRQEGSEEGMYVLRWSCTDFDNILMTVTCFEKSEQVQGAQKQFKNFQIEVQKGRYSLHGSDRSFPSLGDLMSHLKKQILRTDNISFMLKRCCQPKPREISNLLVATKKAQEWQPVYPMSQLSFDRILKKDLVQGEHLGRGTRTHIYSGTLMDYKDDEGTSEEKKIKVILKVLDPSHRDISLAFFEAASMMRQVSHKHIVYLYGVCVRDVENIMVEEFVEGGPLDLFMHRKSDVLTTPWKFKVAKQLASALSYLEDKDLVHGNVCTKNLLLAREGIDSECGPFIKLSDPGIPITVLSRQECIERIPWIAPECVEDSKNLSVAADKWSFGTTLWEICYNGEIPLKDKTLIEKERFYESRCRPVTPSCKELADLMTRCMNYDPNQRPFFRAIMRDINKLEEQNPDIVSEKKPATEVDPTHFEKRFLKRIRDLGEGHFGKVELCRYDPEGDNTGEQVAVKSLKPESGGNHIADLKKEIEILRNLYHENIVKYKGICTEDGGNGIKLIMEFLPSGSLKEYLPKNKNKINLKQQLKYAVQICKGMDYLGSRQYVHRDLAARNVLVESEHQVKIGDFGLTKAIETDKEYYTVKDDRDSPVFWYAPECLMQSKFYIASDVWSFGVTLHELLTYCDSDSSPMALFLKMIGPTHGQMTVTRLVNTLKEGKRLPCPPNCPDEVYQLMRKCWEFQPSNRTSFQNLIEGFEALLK

`CO[C@@]1(c2cc(OCC[C@@H](C)O)cc(-c3cn(C)c4cnc(NC(C)=O)cc34)n2)CCOC1` [Example 7]: at Jak1, the “Tyk2 selectivity over Jak1” value is reported as 39-fold. In addition, the “Tyk2 selectivity over Jak2” value on Jak2 is given as >28-fold.

`CC(=O)Nc1cc2c(-c3cccc([C@]4(CO)CCOC4)n3)cn(C)c2cn1` [Example 21, (S)-N-(3-(6-(3-(Hydroxymethyl)tetrahydrofuran-3-yl)pyridin-2-yl)-1-methyl-1H-pyrrolo[2,3-c]pyridin-5-yl)acetamide]: the “Tyk2 selectivity over Jak1” value at Jak1 was 35-fold. Further, the “Tyk2 selectivity over Jak2” value at Jak2 is on record as >313-fold.

On to `CO[C@@]1(c2cc(C(F)F)cc(-c3cn(C)c4cnc(NC(=O)CO)cc34)n2)CCOC1` [Example 26, (R)-N-(3-(4-(difluoromethyl)-6-(3-methoxytetrahydrofuran-3-yl)pyridin-2-yl)-1-methyl-1H-pyrrolo[2,3-c]pyridin-5-yl)-2-hydroxyacetamide], for which the “Tyk2 selectivity over Jak1” value on Jak1 is listed as >500-fold. Moreover, at Jak2, the “Tyk2 selectivity over Jak2” value is >500-fold.

`CO[C@@]1(c2cc(C#N)cc(-c3cn(C)c4cnc(NC(N)=O)cc34)n2)CCOC1` [Example 12.3, (R)-1-(3-(4-cyano-6-(3-methoxytetrahydrofuran-3-yl)pyridin-2-yl)-1-methyl-1H-pyrrolo[2,3-c]pyridin-5-yl)urea]: the “Tyk2 selectivity over Jak1” value on Jak1 is 138-fold. On Jak2, the “Tyk2 selectivity over Jak2” value is reported as >266-fold.

On to `CO[C@@]1(c2cccc(-c3cn([C@@H]4CC4(F)F)c4cnc(NC(N)=O)cc34)n2)CCOC1` [Example 1.2, 1-(1-((R)-2,2-difluorocyclopropyl)-3-(6-((R)-3-methoxytetrahydrofuran-3-yl)pyridin-2-yl)-1H-pyrrolo[2,3-c]pyridin-5-yl)urea], for which, on Jak1, the “Tyk2 selectivity over Jak1” value is reported as 300-fold. In addition, the “Tyk2 selectivity over Jak2” value on Jak2 was >556-fold.

With `COCCOc1cc(-c2cn(C)c3cnc(NC(C)=O)cc23)nc([C@]2(OC)CCOC2)c1` [Example 25, (R)-N-(3-(4-(2-methoxyethoxy)-6-(3-methoxytetrahydrofuran-3-yl)pyridin-2-yl)-1-methyl-1H-pyrrolo[2,3-c]pyridin-5-yl)acetamide], the “Tyk2 selectivity over Jak1” value on Jak1 is 1960-fold. For the same molecule, the “Tyk2 selectivity over Jak2” value at Jak2 is recorded as >1000-fold.

`CO[C@@]1(c2cc(OCCO)cc(-c3cn(C)c4cnc(NC(C)=O)cc34)n2)CCOC1` [Example 10, (R)-N-(3-(4-(2-Hydroxyethoxy)-6-(3-methoxytetrahydrofuran-3-yl)pyridin-2-yl)-1-methyl-1H-pyrrolo[2,3-c]pyridin-5)-ypacetamide]: the “Tyk2 selectivity over Jak1” value on Jak1 is 297-fold. The “Tyk2 selectivity over Jak2” value on Jak2 was >275-fold.

In the case of `CC(=O)Nc1cc2c(-c3cc(C(F)F)cc([C@]4(CO)CCOC4)n3)cn(C)c2cn1` [Example 22.5, (S)-N-(3-(4-(difluoromethyl)-6-(3-(hydroxymethyl)tetrahydrofuran-3-yl)pyridin-2-yl)-1-methyl-1H-pyrrolo[2,3-c]pyridin-5-yl)acetamide], on Jak1, the “Tyk2 selectivity over Jak1” value was 98-fold. Further, the “Tyk2 selectivity over Jak2” value at Jak2 was >347-fold.

As to `CO[C@@]1(c2cc(C(F)F)cc(-c3cn(C)c4cnc(NC(C)=O)cc34)n2)CCOC1` [Example 2.8, (R)-N-(3-(4-(difluoromethyl)-6-(3-methoxytetrahydrofuran-3-yl)pyridin-2-yl)-1-methyl-1H-pyrrolo[2,3-c]pyridin-5-yl)acetamide], the “Tyk2 selectivity over Jak1” value on Jak1 is listed as 405-fold. Further, the “Tyk2 selectivity over Jak2” value on Jak2 is recorded as >595-fold.

As for `CO[C@@]1(c2cc(OC[C@H](C)O)cc(-c3cn(C)c4cnc(NC(C)=O)cc34)n2)CCOC1` [Example 14.5, N-(3-(4-((S)-2-hydroxypropoxy)-6-((R)-3-methoxytetrahydrofuran-3-yl)pyridin-2-yl)-1-methyl-1H-pyrrolo[2,3-c]pyridin-5-yl)acetamide], the “Tyk2 selectivity over Jak1” value on Jak1 is 486-fold. For the same molecule, the “Tyk2 selectivity over Jak2” value at Jak2 is given as >171-fold.

Turning to `COCc1cc(-c2cn(C)c3cnc(NC(C)=O)cc23)nc([C@]2(OC)CCOC2)c1` [Example 2, (R)-N-(3-(4-(Methoxymethyl)-6-(3-methoxytetrahydrofuran-3-yl)pyridin-2-yl)-1-methyl-1H-pyrrolo[2,3-c]pyridin-5-yl)acetamide], on Jak1, the “Tyk2 selectivity over Jak1” value was >317-fold. Also, at Jak2, the “Tyk2 selectivity over Jak2” value is recorded as >198-fold.

For the molecule `COCc1cc(-c2cn(C)c3cnc(NC(N)=O)cc23)nc([C@]2(OC)CCOC2)c1` [Example 3, (R)-1-(3-(4-(Methoxymethyl)-6-(3-methoxytetrahydrofuran-3-yl)pyridin-2-yl)-1-methyl-1H-pyrrolo[2,3-c]pyridin-5-yl)urea], on Jak1, the “Tyk2 selectivity over Jak1” value is 514-fold. In addition, on Jak2, the “Tyk2 selectivity over Jak2” value is given as >714-fold.

`Cn1cc(-c2cncc([C@]3(C)CCOC3)n2)c2cc(NC(N)=O)ncc21` [Example 1b.5, (S)-1-(1-methyl-3-(6-(3-methyltetrahydrofuran-3-yl)pyrazin-2-yl)-1H-pyrrolo[2,3-c]pyridin-5-yl)urea]: the “Tyk2 selectivity over Jak1” value on Jak1 is 83-fold. Also, at Jak2, the “Tyk2 selectivity over Jak2” value is on record as >1389-fold.

On to `CO[C@@]1(c2cccc(-c3cn([C@H]4C[C@H](C#N)C4)c4cnc(NC(C)=O)cc34)n2)CCOC1` [Example 17, N-(1-((trans)-3-Cyanocyclobutyl)-3-(6-((R)-3-methoxytetrahydrofuran-3-yl)pyridin-2-yl)-1H-pyrrolo[2,3-c]pyridin-5-yl)acetamide], for which, at Jak1, the “Tyk2 selectivity over Jak1” value is 871-fold. The “Tyk2 selectivity over Jak2” value at Jak2 was >806-fold.

Take `Cn1cc(-c2cncc([C@@]3(C)CCOC3)n2)c2cc(NC(N)=O)ncc21` [Example 1b.6, (R)-1-(1-methyl-3-(6-(3-methyltetrahydrofuran-3-yl)pyrazin-2-yl)-1H-pyrrolo[2,3-c]pyridin-5-yl)urea]: the “Tyk2 selectivity over Jak1” value at Jak1 was 22-fold. On Jak2, the “Tyk2 selectivity over Jak2” value was >128-fold.

On to `COCc1cc(-c2cn(C)c3cnc(NC(C)=O)cc23)nc([C@]2(CO)CCOC2)c1` [Example 22, (S)-N-(3-(6-(3-(Hydroxymethyl)tetrahydrofuran-3-yl)-4-(methoxymethyl)pyridin-2-yl)-1-methyl-1H-pyrrolo[2,3-c]pyridin-5-yl)acetamide], for which, on Jak1, the “Tyk2 selectivity over Jak1” value is recorded as 72-fold. Moreover, the “Tyk2 selectivity over Jak2” value at Jak2 is given as >171-fold.

Consider `CO[C@@]1(c2cc(C)cc(-c3cn(C)c4cnc(NC(N)=O)cc34)n2)CCOC1` [Example 1b.2, (R)-1-(3-(6-(3-methoxytetrahydrofuran-3-yl)-4-methylpyridin-2-yl)-1-methyl-1H-pyrrolo[2,3-c]pyridin-5-yl)urea], for which, on Jak1, the “Tyk2 selectivity over Jak1” value is reported as 840-fold. In addition, the “Tyk2 selectivity over Jak2” value on Jak2 was >1000-fold.

As for `CO[C@H](C)COc1cc(-c2cn(C)c3cnc(NC(C)=O)cc23)nc([C@]2(OC)CCOC2)c1` [Example 22.10, N-(3-(4-((R)-2-methoxypropoxy)-6-((R)-3-methoxytetrahydrofuran-3-yl)pyridin-2-yl)-1-methyl-1H-pyrrolo[2,3-c]pyridin-5-yl)acetamide], the “Tyk2 selectivity over Jak1” value on Jak1 is reported as >272-fold. Besides, the “Tyk2 selectivity over Jak2” value at Jak2 is >272-fold.
